Laboratory results from patent publication US4173647A, “4-Spectinomycylamine and salts thereof” (Boehringer Ingelheim GmbH, priority 1977, dated 1979).
Converted amounts (≈) assume the structure as drawn.

How the values were obtained:
[1] = test system: Escherichia coli ATCC 9637; assay: series-dilution assay in the microtiter system, bacteriostasis; format: cell-based; conditions: ATCC9637, pH 6.7, read-out: Minimum inhibiting concentration
Protocol: (§1) 4-R-Spectinomycylamine of the formula I was tested in comparison with the known antibiotic spectinomycin with regard to its effectiveness against Staphylococcus aureus SG 511, Streptococcus aronson, Escherichia coli ATCC 9637, Pseudomonas aeruginosa, Serratia marcescens ATCC 13 880, Klebsiella pneumoniae ATCC 10 031, Proteus mirabilis and Proteus vulgaris, and with regard to acute toxicity.
(§2) For these tests the method of the series-dilution essay in the microtiter system was used. The substances were tested in a fluid medium with regard to bacteriostasis. The effectiveness of the bacteriostasis was tested at the following concentrations: 80, 40, 20, 10, 5, 2.5, 1.25, 0.6 and 0.3 μgm/ml. A bouillon consisting of 5 gm of peptone, 3 gm of meat extract, filled up to a volume of 1000 ml with distilled water served as nutriant; pH-value 6.7. The age of the primary cultures was 24 hours. The adjustment of the microorganism suspension was carried out with a photometer (according to Eppendorf) (diameter of the test tube 14 mm, filter 546 nm) by comparison with the turbidity of a barium sulfate comparison suspension produced by a suspension of barium sulfate which was prepared by addition of 3.0 ml of 1% barium chloride solution on 97 ml of 1% sulfuric acid. After the adjustment streptococcus aronson was diluted 1:150 and the remaining test microorganisms were further diluted with sodium chloride solution in the proportion of 1:1500.
(§3) 16 mgm of the test substance was weighed in 10 ml measuring flasks and filled up with the solvent until the mark was reached. The further dilution series was prepared with distilled water or with the respective solvent.
(§4) 0.2 ml of nutrient medium, 0.01 ml of the corresponding test substance dilution and 1 drop of the microorganism suspension were placed into the cavities of the microtiter plates and incubated for 18 to 20 hours at 37° C. A solvent control batch was always treated in like manner at the same time.
(§5) The reading was effected macroscopically, whereby the respective threshold concentration (=lowest still bacteriostatically effective concentration) was determined.

[2] = test system: Klebsiella pneumoniae ATCC 10 031; assay: as above; format: cell-based; conditions: ATCC10, 18 to 20 hours at 37° C., pH 6.7, lowest still bacteriostatically effective concentration, read-out: Minimum inhibiting concentration
Protocol: as §1, §2, §3, §4, §5

Proteus mirabilis = assay: as above; format: cell-based; conditions: 18 to 20 hours at 37° C., pH 6.7, lowest still bacteriostatically effective concentration, read-out: Minimum inhibiting concentration
Protocol: as §1, §2, §3, §4, §5

Proteus vulgaris = assay: as above; format: cell-based; conditions: 18 to 20 hours at 37° C., pH 6.7, lowest still bacteriostatically effective concentration, read-out: Minimum inhibiting concentration
Protocol: as §1, §2, §3, §4, §5

Pseudomonas aeruginosa = assay: as above; format: cell-based; conditions: pH 6.7, read-out: Minimum inhibiting concentration
Protocol: as §1, §2, §3, §4, §5

[3] = test system: Serratia marcescens ATCC 13 880; assay: as above; format: cell-based; conditions: ATCC13, pH 6.7, read-out: Minimum inhibiting concentration
Protocol: as §1, §2, §3, §4, §5

[4] = test system: Staphylococcus aureus SG 511; assay: as above; format: cell-based; conditions: SG511, 18 to 20 hours at 37° C., pH 6.7, lowest still bacteriostatically effective concentration, read-out: Minimum inhibiting concentration
Protocol: as §1, §2, §3, §4, §5

Streptococcus aronson = assay: as above; format: cell-based; conditions: 18 to 20 hours at 37° C., pH 6.7, lowest still bacteriostatically effective concentration, read-out: Minimum inhibiting concentration
Protocol: as §1, §2, §3, §4, §5

[5] = antimicrobial activity (general statement, in vitro and in warm-blooded animals such as mice)

SMILES	MIC [1] [µg/mL]	MIC [2] [µg/mL]	MIC (Proteus mirabilis) [µg/mL]	MIC (Proteus vulgaris) [µg/mL]	MIC (Pseudomonas aeruginosa) [µg/mL]	MIC [3] [µg/mL]	MIC [4] [µg/mL]	MIC (Streptococcus aronson) [µg/mL]	antimicrobial properties (in words) [5]
CNC1C(O)C(NC)C2OC3(O)C(N)CC(C)OC3OC2C1O (centres unmarked) [4-R-Spectinomycylamine]	20 (≈ 60 µM)	10 (≈ 30 µM)	10 (≈ 30 µM)	5 (≈ 15 µM)	40 (≈ 120 µM)	10 (≈ 30 µM)	5 (≈ 15 µM)	5 (≈ 15 µM)	especially pronounced
CN[C@@H]1[C@H](O)[C@H](NC)[C@H]2O[C@@]3(O)C(=O)C[C@@H](C)O[C@H]3O[C@@H]2[C@H]1O [Spectinomycin, spectinomycin, reference compound]	40 (≈ 120 µM)	20 (≈ 60.2 µM)	10 (≈ 30.1 µM)	10 (≈ 30.1 µM)	160 (≈ 481 µM)	20 (≈ 60.2 µM)	20 (≈ 60.2 µM)	10 (≈ 30.1 µM)	
